According to ChEMBL document CHEMBL5316350, “Novel Pyrido[2',1':2,3]imidazo[4,5-c]quinoline Derivative Selectively Poisons Leishmania donovani Bisubunit Topoisomerase 1 to Inhibit the Antimony-Resistant Leishmania Infection in Vivo” (J Med Chem, 2023):
Active and inactive are the calls of the source. No cut-off for these calls is given here.

What was measured:
[1] = target: T1, DNA topoisomerase I (Leishmania donovani (strain BPK282A1), UniProt E9BRC0); test: Inhibition of Leishmania donovani Top1 assessed as relaxation of supercoiled pBluescript SK(+) DNA measured by agarose gel electrophoresis analysis
T1 sequence (E9BRC0 whole entry): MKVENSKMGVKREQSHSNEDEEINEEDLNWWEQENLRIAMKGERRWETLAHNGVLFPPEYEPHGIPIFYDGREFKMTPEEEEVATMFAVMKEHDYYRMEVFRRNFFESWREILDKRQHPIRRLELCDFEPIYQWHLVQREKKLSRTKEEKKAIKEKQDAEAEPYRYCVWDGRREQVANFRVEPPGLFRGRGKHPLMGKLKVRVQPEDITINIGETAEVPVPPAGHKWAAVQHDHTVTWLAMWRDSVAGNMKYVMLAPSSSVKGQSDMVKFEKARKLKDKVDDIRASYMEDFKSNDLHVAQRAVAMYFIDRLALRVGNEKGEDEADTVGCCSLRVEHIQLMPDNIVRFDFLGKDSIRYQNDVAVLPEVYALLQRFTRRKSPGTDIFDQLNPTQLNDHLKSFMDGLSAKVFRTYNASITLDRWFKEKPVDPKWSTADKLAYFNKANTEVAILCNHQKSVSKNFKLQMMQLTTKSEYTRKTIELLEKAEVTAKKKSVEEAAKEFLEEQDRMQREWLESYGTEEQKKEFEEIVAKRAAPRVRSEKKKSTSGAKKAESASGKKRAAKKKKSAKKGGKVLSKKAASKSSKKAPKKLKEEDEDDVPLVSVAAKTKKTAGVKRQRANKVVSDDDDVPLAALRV

[2] = target: T2, DNA topoisomerase I (Leishmania donovani (strain BPK282A1)) (UniProt E9BRC0); test: Inhibition of Leishmania donovani recombinant Top1 assessed as relaxation of supercoiled pBluescript SK(+) DNA incubated for 30 mins by agarose gel electrophoresis analysis; conditions: dose 0.5-10 µM
T2 sequence (whole entry): T1 sequence (E9BRC0 whole entry)

[3] = target: T2, DNA topoisomerase I (Leishmania donovani (strain BPK282A1)); test: Potency index, ratio of Camptothecin IC50 to compound IC50 for inhibition of Leishmania donovani Top1 assessed as relaxation of supercoiled pBluescript SK(+) DNA measured by agarose gel electrophoresis analysis
[4] = test system: Leishmania donovani; test: Induction of apoptosis in Leishmania donovani Ag83 promastigotes assessed as DNA break accumulation measured at 5 uM after 15 mins by TUNEL staining based assay; type: functional, organism-based
[5] = test system: Leishmania donovani; test: Induction of apoptosis in Leishmania donovani Ag83 promastigotes assessed as early apoptotic cells measured at 5 uM after 12 hrs by Annexin V-FITC/PI staining based flow cytometric analysis (reference value: 0.00%); type: functional
[6] = test system: Leishmania donovani; test: Antileishmanial activity in Leishmania donovani BHU575 promastigotes assessed as TUNEL positive cells at 5 uM measured after 12 hrs by confocal microscopic analysis relative to control; type: functional
[7] = test system: Leishmania donovani; test: Induction of cell cycle arrest in antimony resistant Leishmania donovani BHU575 promastigotes assessed as decrease in accumulation of cells in G2/M phase at 5 uM measured after 6 hrs by PI staining based flow cytometry (reference value: 8.8%); type: functional; design: scale not given: the % may be the effect or the level left
[8] = test system: Leishmania donovani; test: Antileishmanial activity against antimony resistant Leishmania donovani BHU575 amastigotes infected in BALB/c mouse macrophage assessed as cell viability measured after 48 hrs infection by propidium iodide staining analysis relative to control; type: functional, organism-based; conditions: BHU575, 48 h
[9] = test system: Leishmania donovani; test: Antileishmanial activity against antimony resistant Leishmania donovani BHU575 promastigotes infected in BALB/c mouse assessed as reduction of amastigote burden by measuring parasite count in liver treated after 3 weeks of infection at 5 to 10 mg/kg, ip twice a week for 3 weeks by qPCR based kineto-plastid DNA; type: functional, organism-based; conditions: dose 5-10 mg/kg
[10] = test system: Leishmania donovani; test: Antileishmanial activity against Leishmania donovani Ag83 promastigotes infected in BALB/c mouse model of visceral leishmaniasis assessed as fold change in T-helper type 1 immunological evoke response in splenocytes by measuring decrease in TGF-beta level treated after 3 weeks of infection at 5 to 10 mg/kg, ip twice a week for 3 weeks by RT-PCR analysis; type: functional; conditions: dose 5-10 mg/kg

Q: For `COc1cc(-c2nc3ccccc3c3nc4ccccn4c23)cc(OC)c1OC`, which IC50 [1] is on record?
A: 3.75 µM

Q: What about the inhibition [2] of the same compound?
A: Dose-Dependent Effect

Q: And the Ratio IC50 [3]?
A: 2.5

Q: And the Activity [4]?
A: Active

Q: And the Activity [5]?
A: 11.4%

Q: What about the Activity [6] of the same compound?
A: 60%

Q: What about the Activity [7] of the same compound?
A: 2.6%

Q: What about the EC50 [8] of the same compound?
A: 7.06 µM

Q: And the Activity [9]?
A: Active

Q: And the “fold change (FC)” value [10]?
A: 2
